Experimental data: ChEMBL document CHEMBL5113511, “Discovery of Small-Molecule Degraders of the CDK9-Cyclin T1 Complex for Targeting Transcriptional Addiction in Prostate Cancer” (J Med Chem, 2022)
The source made the active and inactive calls.

How the values were obtained:
[1] = target: T1, CDK9/cyclin T1 (Homo sapiens) (UniProt O60563+P50750); assay: Induction of CDK9/Cyclin T1 degradation in human 22Rv1 cells assessed as downregulation of NKX3-1 protein expression at 0.3 to 3 uM incubated fo 24 hrs by immunoblot analysis; assay type: cell-based; conditions: dose 0.3-3 µM
[2] = target: T1, CDK9/cyclin T1 (Homo sapiens); assay: Induction of CDK9/Cyclin T1 degradation in human 22Rv1 cells assessed as downregulation of KLK1 gene expression at 2 uM incubated for 24 hrs by RNA-Seq based analysis; assay type: cell-based
[3] = target: T1, CDK9/cyclin T1 (Homo sapiens); assay: Induction of CDK9/Cyclin T1 degradation in human 22Rv1 cells assessed as downregulation of KLK2 gene expression at 2 uM incubated for 24 hrs by RNA-Seq based analysis; assay type: cell-based
[4] = target: T1, CDK9/cyclin T1 (Homo sapiens); assay: Induction of CDK9/Cyclin T1 degradation in human 22Rv1 cells assessed as downregulation of ZNF517 gene expression at 2 uM incubated for 24 hrs by RNA-Seq based analysis; assay type: cell-based
CWR22R [5] = assay: Downregulation of CDK6 level in human 22Rv1 cells at 3 uM measured after 12 hrs by DIA-based proteomics analysis; assay type: functional, cell-based
[6] = target: T1, CDK9/cyclin T1 (Homo sapiens); assay: Induction of CDK9/Cyclin T1 degradation in human 22Rv1 cells assessed as downregulation of MYCN gene expression at 2 uM incubated for 24 hrs by RNA-Seq based analysis; assay type: cell-based
[7] = target: T1, CDK9/cyclin T1 (Homo sapiens); assay: Induction of CDK9/Cyclin T1 degradation in human 22Rv1 cells assessed as downregulation of AKR1C3 gene expression at 2 uM incubated for 24 hrs by RNA-Seq based analysis; assay type: cell-based
[8] = target: Cyclin-dependent kinase 7 (Homo sapiens) (UniProt P50613); assay: Induction of CDK7 degradation in human 22Rv1 cells assessed as downregulation of CDK7 level at 3 uM measured after 12 hrs by DIA-based proteomics analysis; assay type: cell-based
Sequence of Cyclin-dependent kinase 7 (Homo sapiens) (P50613 whole entry): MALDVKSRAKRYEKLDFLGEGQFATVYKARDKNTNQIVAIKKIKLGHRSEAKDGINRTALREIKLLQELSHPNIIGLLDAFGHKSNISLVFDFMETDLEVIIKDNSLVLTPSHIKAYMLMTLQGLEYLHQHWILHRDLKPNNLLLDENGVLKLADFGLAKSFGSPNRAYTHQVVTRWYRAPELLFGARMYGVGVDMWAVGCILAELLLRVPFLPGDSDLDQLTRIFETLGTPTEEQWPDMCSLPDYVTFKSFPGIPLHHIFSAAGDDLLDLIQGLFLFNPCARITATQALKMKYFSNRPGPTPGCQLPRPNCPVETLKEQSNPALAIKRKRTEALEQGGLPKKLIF

CWR22R [9] = assay: Induction of cell cycle arrest in human 22Rv1 cells assessed as accumulation of cells at sub-G1 phase at 0.3 to 1 uM incubated for 24 hrs by propidium iodide staining based flow cytometry; assay type: functional; conditions: dose 0.3-1 µM
[10] = target: T1, CDK9/cyclin T1 (Homo sapiens); assay: Induction of CDK9/Cyclin T1 degradation in human 22Rv1 cells assessed as downregulation of KLK3 protein expression at 0.3 to 3 uM incubated fo 24 hrs by immunoblot analysis; assay type: cell-based; conditions: dose 0.3-3 µM
[11] = target: T1, CDK9/cyclin T1 (Homo sapiens); assay: Induction of CDK9/Cyclin T1 degradation in human 22Rv1 cells assessed as inhibition of Ser2 phosphorylation of RNA Pol II CTD at 0.3 to 3 uM incubated for 24 hrs by immunoblot analysis; assay type: cell-based; conditions: dose 0.3-3 µM
Cyclin-T2 (Homo sapiens) = Cyclin-T2 (Homo sapiens) (UniProt O60583); assay: Induction of HyT-mediated degradation of cyclin T2 in human 22Rv1 cells assessed as reduction in cyclin T2 level at 3 to 6 uM incubated for 24 hrs by immunoblot analysis; assay type: cell-based; conditions: dose 3-6 µM
Sequence of Cyclin-T2 (Homo sapiens) (O60583 whole entry): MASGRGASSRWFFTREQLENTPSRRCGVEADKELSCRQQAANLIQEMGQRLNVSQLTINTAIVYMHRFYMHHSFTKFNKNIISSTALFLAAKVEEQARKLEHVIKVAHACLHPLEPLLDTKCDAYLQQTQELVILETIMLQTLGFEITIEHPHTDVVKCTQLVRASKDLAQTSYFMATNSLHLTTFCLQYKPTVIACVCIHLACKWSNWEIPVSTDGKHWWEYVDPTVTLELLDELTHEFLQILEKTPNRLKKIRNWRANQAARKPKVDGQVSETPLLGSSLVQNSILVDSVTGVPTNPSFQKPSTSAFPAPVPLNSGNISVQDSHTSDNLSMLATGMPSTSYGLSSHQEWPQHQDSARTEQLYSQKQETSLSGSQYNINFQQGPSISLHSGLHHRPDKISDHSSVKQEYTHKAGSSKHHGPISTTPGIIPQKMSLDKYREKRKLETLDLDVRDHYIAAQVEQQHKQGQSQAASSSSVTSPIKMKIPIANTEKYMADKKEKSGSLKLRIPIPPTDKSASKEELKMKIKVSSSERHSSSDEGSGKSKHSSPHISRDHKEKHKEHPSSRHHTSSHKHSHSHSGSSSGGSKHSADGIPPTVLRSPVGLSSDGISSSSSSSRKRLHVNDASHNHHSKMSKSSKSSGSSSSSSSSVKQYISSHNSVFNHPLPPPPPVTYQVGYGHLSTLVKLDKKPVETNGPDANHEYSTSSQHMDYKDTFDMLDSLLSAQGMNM

[12] = target: T1, CDK9/cyclin T1 (Homo sapiens); assay: Induction of CDK9/Cyclin T1 degradation in human 22Rv1 cells assessed as downregulation of NKX3-1 gene expression at 2 uM incubated for 24 hrs by RNA-Seq based analysis; assay type: cell-based
[13] = target: T1, CDK9/cyclin T1 (Homo sapiens); assay: Induction of CDK9/Cyclin T1 degradation in human 22Rv1 cells assessed as downregulation of c-Myc protein expression at 2 uM measured after 24 hrs by immunoblot analysis; assay type: cell-based
[14] = target: T1, CDK9/cyclin T1 (Homo sapiens); assay: Induction of CDK9/Cyclin T1 degradation in human 22Rv1 cells assessed as downregulation of AR protein expression at 3 uM measured for 36 hrs by DIA-based proteomics analysis; assay type: cell-based
CWR22R [15] = assay: Induction of cell cycle arrest in human 22Rv1 cells assessed as accumulation of cells at G1 phase at 0.3 to 1 uM incubated for 24 hrs by propidium iodide staining based flow cytometry; assay type: functional; conditions: dose 0.3-1 µM
[16] = target: Cyclin-dependent kinase 4 (Homo sapiens) (UniProt P11802); assay: Induction of CDK4 degradation in human 22Rv1 cells assessed as downregulation of CDK4 level at 3 uM measured after 12 hrs by DIA-based proteomics analysis; assay type: cell-based
Sequence of Cyclin-dependent kinase 4 (Homo sapiens) (P11802 whole entry): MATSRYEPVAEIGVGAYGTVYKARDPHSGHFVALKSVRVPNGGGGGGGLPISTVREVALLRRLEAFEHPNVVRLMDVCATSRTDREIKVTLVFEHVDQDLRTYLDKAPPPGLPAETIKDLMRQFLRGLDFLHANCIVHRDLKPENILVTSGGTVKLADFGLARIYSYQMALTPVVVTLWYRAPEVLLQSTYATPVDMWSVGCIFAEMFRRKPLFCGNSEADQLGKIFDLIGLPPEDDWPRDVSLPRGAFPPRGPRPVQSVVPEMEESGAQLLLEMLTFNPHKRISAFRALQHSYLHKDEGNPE

Cyclin-T1 = Cyclin-T1 (Homo sapiens, UniProt O60563); assay: Induction of HyT-mediated degradation of Cyclin T1 in human 22Rv1 cells at 3 uM measured after 5 to 18 hrs by immunoblot analysis; assay type: cell-based; conditions: time 5-18 hrs
Sequence of Cyclin-T1 (O60563 whole entry): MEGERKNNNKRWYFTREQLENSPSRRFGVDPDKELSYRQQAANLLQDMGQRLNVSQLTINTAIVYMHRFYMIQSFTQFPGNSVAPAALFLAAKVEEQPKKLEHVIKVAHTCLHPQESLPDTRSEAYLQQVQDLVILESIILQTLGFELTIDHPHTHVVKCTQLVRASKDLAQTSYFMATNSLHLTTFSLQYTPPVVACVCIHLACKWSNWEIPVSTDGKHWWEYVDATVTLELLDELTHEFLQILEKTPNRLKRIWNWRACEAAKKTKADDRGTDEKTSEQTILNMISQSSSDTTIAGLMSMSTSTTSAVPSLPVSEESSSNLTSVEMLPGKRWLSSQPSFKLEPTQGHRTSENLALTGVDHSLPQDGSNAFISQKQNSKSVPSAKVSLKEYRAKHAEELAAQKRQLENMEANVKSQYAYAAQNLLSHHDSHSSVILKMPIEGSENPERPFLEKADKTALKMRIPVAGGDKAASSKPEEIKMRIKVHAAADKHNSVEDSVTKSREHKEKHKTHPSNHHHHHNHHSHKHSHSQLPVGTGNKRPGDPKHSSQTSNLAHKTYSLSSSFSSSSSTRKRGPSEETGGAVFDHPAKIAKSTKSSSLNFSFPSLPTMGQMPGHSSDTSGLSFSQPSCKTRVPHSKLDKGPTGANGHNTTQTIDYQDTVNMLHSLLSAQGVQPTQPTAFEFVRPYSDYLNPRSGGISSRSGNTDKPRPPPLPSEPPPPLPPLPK

[17] = target: T1, CDK9/cyclin T1 (Homo sapiens); assay: Induction of CDK9/Cyclin T1 degradation in human 22Rv1 cells assessed as downregulation of MCL1 protein expression at 0.3 to 3 uM incubated for 24 hrs by immunoblot analysis; assay type: cell-based; conditions: dose 0.3-3 µM
[18] = target: T1, CDK9/cyclin T1 (Homo sapiens); assay: Induction of CDK9/Cyclin T1 degradation in human 22Rv1 cells assessed as decrease in cyclin C protein expression at 3 uM measured for 36 hrs by DIA-based proteomics analysis; assay type: cell-based
[19] = target: T2, Cyclin-dependent kinase 9 (Homo sapiens, UniProt P50750); assay: Induction of HyT-mediated degradation of CDK9 in human 22Rv1 cells at 3 uM measured for 36 hrs by DIA-based proteomics analysis; assay type: cell-based
T2 sequence (P50750 whole entry): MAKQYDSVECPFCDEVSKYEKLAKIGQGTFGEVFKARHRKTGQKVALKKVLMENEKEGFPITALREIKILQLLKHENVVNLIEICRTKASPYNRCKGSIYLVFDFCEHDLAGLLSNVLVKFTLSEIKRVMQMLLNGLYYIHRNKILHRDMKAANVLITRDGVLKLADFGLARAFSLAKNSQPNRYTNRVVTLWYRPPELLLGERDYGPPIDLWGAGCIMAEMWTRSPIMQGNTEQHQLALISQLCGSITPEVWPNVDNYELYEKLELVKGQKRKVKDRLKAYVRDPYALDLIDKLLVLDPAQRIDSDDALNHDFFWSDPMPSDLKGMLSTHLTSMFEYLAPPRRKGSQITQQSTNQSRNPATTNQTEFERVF

[20] = target: T1, CDK9/cyclin T1 (Homo sapiens); assay: Induction of CDK9/Cyclin T1 degradation in human 22Rv1 cells assessed as downregulation of AR protein expression at 2 uM measured after 24 hrs by immunoblot analysis; assay type: cell-based
[21] = target: T2, Cyclin-dependent kinase 9; assay: Induction of HyT-mediated degradation of CDK9 in human 22Rv1 cells at 3 uM measured after 5 to 18 hrs by immunoblot analysis; assay type: cell-based; conditions: time 5-18 hrs
[22] = target: T1, CDK9/cyclin T1 (Homo sapiens); assay: Induction of CDK9/Cyclin T1 degradation in human 22Rv1 cells assessed as downregulation of SLC1A5 gene expression at 2 uM incubated for 24 hrs by RNA-Seq based analysis; assay type: cell-based
[23] = target: T2, Cyclin-dependent kinase 9; assay: Induction of Hyt-mediated degradation of CDK9 in human 22Rv1 cells assessed as downregulation of CDK9 level at 2 uM incubated for 24 hrs by DIA-based proteomics analysis; assay type: cell-based
[24] = target: T1, CDK9/cyclin T1 (Homo sapiens); assay: Induction of CDK9/Cyclin T1 degradation in human 22Rv1 cells assessed as downregulation of c-Myc protein expression at 2 uM measured after 48 hrs by immunoblot analysis; assay type: cell-based
[25] = target: T1, CDK9/cyclin T1 (Homo sapiens); assay: Induction of CDK9/Cyclin T1 degradation in human 22Rv1 cells assessed as downregulation of NAT1 gene expression at 2 uM incubated for 24 hrs by RNA-Seq based analysis; assay type: cell-based
[26] = target: T1, CDK9/cyclin T1 (Homo sapiens); assay: Induction of CDK9/Cyclin T1 degradation in human 22Rv1 cells assessed as decrease in cyclin B1 protein expression at 3 uM measured for 36 hrs by DIA-based proteomics analysis; assay type: cell-based
CWR22R [27] = assay: Induction of apoptosis in human 22Rv1 cells at 0.3 to 1 uM incubated for 24 hrs by AnnexinV-FITC/PI staining based flow cytometry; assay type: functional, cell-based; conditions: dose 0.3-1 µM
[28] = target: T1, CDK9/cyclin T1 (Homo sapiens); assay: Induction of CDK9/Cyclin T1 degradation in human 22Rv1 cells assessed as downregulation of c-Myc protein expression at 0.3 to 3 uM measured after 24 hrs by immunoblot analysis; assay type: cell-based; conditions: dose 0.3-3 µM
[29] = target: T2, Cyclin-dependent kinase 9; assay: Induction of Flag-tagged CDK9 (unknown origin) polyubiquitination expressed in HEK293T cells co-transfected with HA-tagged Cyclin T1 and Myc ubiquitin assessed as increase in K48-linkage poly-ubiqutinated CDK9 level at 1 to 2 uM incubated for 20 hrs by western blot analysis; assay type: cell-based; conditions: dose 1-2 µM
[30] = target: T1, CDK9/cyclin T1 (Homo sapiens); assay: Induction of CDK9/Cyclin T1 degradation in human 22Rv1 cells assessed as downregulation of JMJD6 protein expression at 3 uM measured after 36 hrs by DIA-based proteomics analysis; assay type: cell-based

CC(C)[C@@H]1CC[C@@H](C)C[C@H]1OCC(=O)NCCS(=O)(=O)N1CCC(C(=O)Nc2ncc(SCc3ncc(C(C)(C)C)o3)s2)CC1
active: Activity [1] | Activity [2] | Activity [3] | Activity [4] | inhibition (CWR22R [5]) | Activity [6] | Activity [7] | Activity [8] | Activity (CWR22R [9]) | Activity [10] | Activity [11] | Activity (Cyclin-T2 (Homo sapiens)) | Activity [12] | Activity [13] | Activity [14] | Activity (CWR22R [15]) | Activity [16] | Activity (Cyclin-T1) | Activity [17] | Activity [18] | Activity [19] | Activity [20] | Activity [21] | Activity [22] | Activity [23] | Activity [24] | Activity [25] | Activity [26] | Activity (CWR22R [27]) | Activity [28] | Activity [29] | Activity [30]
